# Data published in patent US20230293485A1, “APPLICATION OF ARTEMISININ COMPOUND IN TREATMENT OF CORONAVIRUS INFECTION” (ACADEMY OF MILITARY MEDICAL SCIENCES, priority 2020, published 2023).
# Where two headings read alike, the source gives them in different places.
# Legend:
# Vero E6 cells = assay: Detection of drug cytotoxicity by CCK-8 kit; format: cell-based; conditions: for Cell viability (% of negative control): 48 h
# Protocol: The detection of drug cytotoxicity was performed by CCK-8 kit (Beoytime). Specific steps were as follows:
# (1) 1×10^4 Vero E6 (ATCC) cells were inoculated into a 96-well plate and cultured at 37° C. for 8 hours.
# (§1) (2) The test drug was diluted with DMSO to achieve an appropriate stock solution concentration, and then diluted with MEM medium (purchased from Gibco, Cat. No. 10370021) containing 2% FBS (purchased from Gibco, Cat. No. 16000044) to the same concentration as that for the drug treatment. The original medium in the 96-well plate was discarded, 100 μL of drug-containing MEM medium was added to the cells, and three replicate wells were made for each concentration. Negative controls (adding DMSO and medium to the cell wells without adding drug) and blank controls (no cells, adding DMSO and medium) were set. After the drug was added, the cells were cultured at 37° C. for 48 hours.
# (3) 20 μL of CCK-8 solution (Beoytime) was added to the wells to be tested, mixed gently without generating air bubbles, and continued to incubate at 37° C. for 2 hours. OD450 was read on a microplate reader (purchased from Molecular Devices, model SpectraMax M5), and cell viability was calculated:
# Cell viability (%)=(A(drug treatment group)−A(blank control))/(A(negative control)−A(blank control))×100%
# wherein A represents reading of microplate reader.
# as §1, with “of the” for “of”
# SARS-CoV-2 = format: cell-based; conditions: for Number of copies of viral genome (MOI = 0.05): Vero E6, 48 h; for Inhibitory activity on viral RNA load: dependence on dose (in words) / Viral nucleic acid load in vero E6 cells infected with SARS-CoV-2 (in words): 48 h after infection
Compound,Cell viability (% of negative control) (Vero E6 cells; 0.78 μM drug),Cell viability (% of negative control) (Vero E6 cells; 1.56 μM drug),Cell viability (% of negative control) (Vero E6 cells; 3.13 μM drug),Cell viability (% of negative control) (Vero E6 cells; 6.25 μM drug),Cell viability (% of negative control) (Vero E6 cells; 12.5 μM drug),Cell viability (% of negative control) (Vero E6 cells; 25 μM drug),Cell viability (% of negative control) (Vero E6 cells; 50 μM drug),Cell viability (% of negative control) (Vero E6 cells; 100 μM drug),Number of copies of viral genome (MOI = 0.05) (SARS-CoV-2; 3.13 μM drug) [copies],Number of copies of viral genome (MOI = 0.05) (SARS-CoV-2; 6.25 μM drug) [copies],Number of copies of viral genome (MOI = 0.05) (SARS-CoV-2; 12.5 μM drug) [copies],Number of copies of viral genome (MOI = 0.05) (SARS-CoV-2; 25 μM drug) [copies],Number of copies of viral genome (MOI = 0.05) (SARS-CoV-2; 50 μM drug) [copies],Inhibitory activity on viral RNA load: dependence on dose (in words) (SARS-CoV-2),Viral nucleic acid load in vero E6 cells infected with SARS-CoV-2 (in words) (SARS-CoV-2),Cell viability (% of negative control) (Vero E6 cells; 200 μM drug),Toxic effect on the cells (in words) (Vero E6 cells; all the tested concentrations),Number of copies of viral genome (MOI = 0.05) (SARS-CoV-2; 100 μM drug) [copies],Number of copies of viral genome (MOI = 0.05) (SARS-CoV-2; 0.94 μM drug) [copies],Number of copies of viral genome (MOI = 0.05) (SARS-CoV-2; 1.88 μM drug) [copies],other results
C=C1C(=O)O[C@@]23[C@H]1CC[C@@H](C)[C@@H]2CC[C@@]1(C)O[C@@H]31 [arteannuin B],93.55 % of negative control,90.63 % of negative control,94.86 % of negative control,102.66 % of negative control,111.44 % of negative control,95.10 % of negative control,74.40 % of negative control,26.24 % of negative control,99188163,98310684,13307075,342654,176411,dose-dependent,effectively reduced viral nucleic acid load,–,–,–,–,–,"Toxic effect on the cells (in words) (Vero E6 cells; at 25 μM or lower): no toxic effect; Toxic effect on the cells (in words) (Vero E6 cells; at 50 μM): a certain toxicity; Number of copies of viral genome (MOI = 0.05) (SARS-CoV-2; 1.56 μM drug): 99554711 copies; Inhibition of replication of SARS-CoV-2 virus genome in the infection supernatant (in words) (SARS-CoV-2; at 50 μM, 25 μM and 12.5 μM): effectively inhibit"
CO[C@H]1O[C@@H]2O[C@@]3(C)CC[C@H]4[C@H](C)CC[C@@H]([C@H]1C)[C@@]24OO3 [artemether],–,107.12 % of negative control,103.68 % of negative control,115.71 % of negative control,115.49 % of negative control,118.96 % of negative control,120.26 % of negative control,130.18 % of negative control,–,49305413,68497905,32850309,26849476,–,–,132.83 % of negative control,no toxic effect,3326694,–,–,Number of copies of viral genome (MOI = 0.05) (SARS-CoV-2; 200 μM drug): 250314 copies
C[C@@H]1CC[C@H]2[C@@H](C)C(=O)O[C@@H]3O[C@@]4(C)CC[C@@H]1[C@]32OO4 [artemisinin],–,98.45 % of negative control,101.55 % of negative control,104.23 % of negative control,112.55 % of negative control,104.26 % of negative control,110.71 % of negative control,109.14 % of negative control,–,79058074,72012135,61918172,31079912,dose-dependent,effectively reduced viral nucleic acid load,97.14 % of negative control,no toxic effect,37237188,–,–,"Number of copies of viral genome (MOI = 0.05) (SARS-CoV-2; 150 μM drug): 25440652 copies; Inhibition of replication of SARS-CoV-2 virus genome in the infection supernatant (in words) (SARS-CoV-2; at 150 μM, 100 μM and 50 μM): effectively inhibit"
C[C@H]1[C@H](OC(=O)CCC(=O)O)O[C@@H]2O[C@@]3(C)CC[C@H]4[C@H](C)CC[C@@H]1[C@@]24OO3 [artesunate],100.09 % of negative control,99.91 % of negative control,97.52 % of negative control,100.64 % of negative control,93.38 % of negative control,84.24 % of negative control,55.44 % of negative control,21.71 % of negative control,170594446,113126147,111098018,70210200,–,dose-dependent,effectively reduced viral nucleic acid load,–,–,–,228511812,171362509,"Toxic effect on the cells (in words) (Vero E6 cells; at 12.5 μM or lower): no toxic effect; Toxic effect on the cells (in words) (Vero E6 cells; at 25 μM): a slight toxicity; Inhibition of replication of SARS-CoV-2 virus genome in the infection supernatant (in words) (SARS-CoV-2; at 25 μM, 12.5 μM and 6.25 μM): effectively inhibit"
C[C@H]1[C@@H](O)O[C@@H]2O[C@@]3(C)CC[C@H]4[C@H](C)CC[C@@H]1[C@@]24OO3 [dihydroartemisinin],93.93 % of negative control,98.80 % of negative control,93.03 % of negative control,100.38 % of negative control,88.94 % of negative control,66.36 % of negative control,22.18 % of negative control,2.33 % of negative control,90162353,55425811,31485734,23363010,–,–,–,–,–,–,111625955,68962319,Toxic effect on the cells (in words) (Vero E6 cells; at 6.25 μM or lower): no toxic effect; Toxic effect on the cells (in words) (Vero E6 cells; at 12.5 μM): a slight toxicity
